In publication PMC12628701, “Paroxysmal Nocturnal Hemoglobinuria in Pregnancy Treated With Pegcetacoplan: Case Report and Pharmacokinetic Analysis” (EJHaem, 2025):

How the values were obtained:
[1] = test system: patient with hemolytic PNH and infant; assay: Clinical tolerability and neonatal outcomes; assay type: in vivo, human
Procedure: (§1) Maternal and fetal outcomes were assessed throughout the third trimester and postpartum. Hematological response was evaluated using serial measurements of hemoglobin, hemolytic markers, and transfusion requirements. Complement levels/activity were measured using immunoturbidimetric assays for C3/C4 (Roche Diagnostics, Germany), and 50% hemolytic complement (CH50) by turbidimetric assay (Optilite, Binding Site, UK). Maternal clinical monitoring included evaluation for breakthrough hemolysis, thrombotic events, and other adverse events. Neonatal outcomes included gestational age at delivery, mode of delivery, birth weight, Apgar scores, and any complications identified during birth, hospitalization, or early follow‐up.

[2] = Pegcetacoplan concentration in breast milk (lactational transfer, LC-MS/MS); assay type: in vivo, human
Procedure: (§2) Maternal blood samples were obtained during routine collections pre‐ and postpartum. Cord blood samples were obtained from the umbilical vein at the time of delivery. Breast milk samples were collected on postpartum Days 1 and 2. Quantitative analysis of pegcetacoplan concentrations in maternal plasma, umbilical cord blood plasma, and breast milk was performed by an independent, accredited laboratory (Q^2 Solutions BioSciences, USA) using a validated liquid chromatography‐tandem mass spectrometry method incorporating pegcetacoplan‐d22 as internal standard, with lower limits of quantification of 10 and 20 µg/mL for plasma and breast milk, respectively.

[3] = test system: patient with hemolytic PNH; assay: Hematological response (hemoglobin, hemolytic markers, transfusion requirements) in pregnant patient with PNH; assay type: in vivo, human; details: for Hapto: normal 0.3–2.0; for ARC: normal 10–100; for Hb: normal 115–160; for Bili: normal ≤ 21; for LDH: normal ≤ 214
Procedure: Prophylactic‐dose dalteparin was prescribed. […] Informed consent was obtained for off‐label use in pregnancy, pharmacokinetic sampling, and case reporting. Institutional ethics board review exemption was granted for this single‐patient case report.
as §1

hemoglobin response = details: plasma concentration; no reference given; cited from earlier work
Procedure: Pegcetacoplan was undetectable in all three cord blood samples (< 10 µg/mL), with no identifiable mass spectrometry peaks, indicating no measurable transplacental drug transfer. Pegcetacoplan was likewise not detected in breast milk, with concentrations below the lower limit of quantification (< 20 µg/mL, Table 2).

[4] = Pegcetacoplan concentration in maternal plasma (LC-MS/MS); assay type: in vivo, human; details: LLOQ 10 µg/mL
Procedure: as §2

cynomolgus monkeys = details: cynomolgus monkey, in vivo; cited from earlier work
Text: In our case, pegcetacoplan was undetectable in all cord blood and breast milk samples, ...

[5] = Pegcetacoplan concentration in umbilical cord blood plasma (placental transfer, LC-MS/MS); assay type: in vivo, human; details: umbilical vein at delivery, LLOQ 10 µg/mL
Procedure: as §2

complement C3, C4, CH50 = assay: Complement levels/activity (C3/C4 immunoturbidimetric, CH50 turbidimetric) in patient; assay type: in vivo, human; details: for CH50: normal 42–95; for C4: normal 0.1–0.4; for C3: normal 0.9–1.8
Procedure: as §1

[6] = 3 + 5 w gestation, on pegcetacoplan before switch to eculizumab
[7] = 28 + 1 w, date of pegcetacoplan reinitiation
[8] = 30 + 3 w, pegcetacoplan overlapping with eculizumab
[9] = 33 w, pegcetacoplan, dose escalation
[10] = 35 + 6 w, pegcetacoplan 1080 mg three times weekly
[11] = 37 + 2 w, date of delivery, pegcetacoplan
[12] = 37 w, pegcetacoplan 1080 mg three times weekly
[13] = after reinitiation of pegcetacoplan at 28 weeks' gestation
[14] = before pregnancy, pegcetacoplan 1080 mg subcutaneous twice-weekly
[15] = later the same day following delivery

For `CCO[C@H]1CCN(Cc2c(OC)cc(C)c3[nH]ccc23)[C@H](c2ccc(C(=O)O)cc2)C1` [iptacopan], the Tolerability ([1]; before pregnancy, nausea unresponsive to antiemetics) was “discontinued due to persistent nausea”.

In the case of pegcetacoplan, the “Concentration, breast milk, Sample 1” value ([2]; postpartum Day 1, LLOQ 20 µg/mL) is reported as “< LLOQ”, the “Concentration, breast milk, Sample 2” value ([2]; postpartum Day 2, LLOQ 20 µg/mL) is reported as “< LLOQ” and the Hapto [3, 6] is reported as 1.85 g/L. It also gave an ARC [3, 6] of 8e+10 L⁻¹, a Hb [3, 6] of 109 g/L and a Bili [3, 6] of 7 µmol/L. The LDH [3, 6] was 153 U/L, the ARC [3, 7] was 1.73e+11 L⁻¹ and the Hb [3, 7] was 87 g/L. It also gave a Bili [3, 7] of 12 µmol/L, an LDH [3, 7] of 208 U/L and an ARC [3, 8] of 1.72e+11 L⁻¹. It also gave a Hb [3, 8] of 93 g/L, a Bili [3, 8] of 9 µmol/L and an LDH [3, 8] of 205 U/L. It also gave a Hapto [3, 9] of 0.89 g/L, an ARC [3, 9] of 1.74e+11 L⁻¹ and a Hb [3, 9] of 96 g/L. For the same compound, the Bili [3, 9] was 7 µmol/L, the LDH [3, 9] was 215 U/L and the Hapto [3, 10] was 0.84 g/L. It also gave an ARC [3, 10] of 1.78e+11 L⁻¹, a Hb [3, 10] of 103 g/L and a Bili [3, 10] of 4 µmol/L. For the same compound, the LDH [3, 10] was 208 U/L, the ARC [3, 11] was 1.2e+11 L⁻¹ and the Hb [3, 11] was 102 g/L. For the same compound, the Bili [3, 11] was 3 µmol/L, the LDH [3, 11] was 210 U/L and the Hapto [3, 12] was 0.1 g/L. For the same compound, the ARC [3, 12] was 1.29e+11 L⁻¹, the Hb [3, 12] was 103 g/L and the Bili [3, 12] was 3 µmol/L. The LDH [3, 12] was 231 U/L, the ARC ([3]; PP 6 w, pegcetacoplan) was 1.46e+11 L⁻¹ and the Hb ([3]; PP 6 w, pegcetacoplan) was 107 g/L. It also gave a Bili ([3]; PP 6 w, pegcetacoplan) of 4 µmol/L, an LDH ([3]; PP 6 w, pegcetacoplan) of 203 U/L and an ARC ([3]; PP 1 d, pegcetacoplan) of 1.03e+11 L⁻¹. The Hb ([3]; PP 1 d, pegcetacoplan) was 88 g/L, the Bili ([3]; PP 1 d, pegcetacoplan) was 3 µmol/L and the LDH ([3]; PP 1 d, pegcetacoplan) was 378 U/L. The ARC ([3]; PP 2 d, pegcetacoplan) was 1.07e+11 L⁻¹, the Hb ([3]; PP 2 d, pegcetacoplan) was 86 g/L and the Bili ([3]; PP 2 d, pegcetacoplan) was 3 µmol/L. For the same compound, the LDH ([3]; PP 2 d, pegcetacoplan) was 351 U/L, the ARC ([3]; PP 3 d, pegcetacoplan) was 1.06e+11 L⁻¹ and the Hb ([3]; PP 3 d, pegcetacoplan) was 86 g/L. The Bili ([3]; PP 3 d, pegcetacoplan) was 3 µmol/L, the LDH ([3]; PP 3 d, pegcetacoplan) was 327 U/L and the Hapto ([3]; PP 10 d, pegcetacoplan) was 1.34 g/L. The ARC ([3]; PP 10 d, pegcetacoplan) was 9.7e+10 L⁻¹, the Hb ([3]; PP 10 d, pegcetacoplan) was 89 g/L and the Bili ([3]; PP 10 d, pegcetacoplan) was 4 µmol/L. The LDH ([3]; PP 10 d, pegcetacoplan) was 280 U/L, the “Hemoglobin (range) during the third trimester” value [3, 13] was 92 to 103 g/L and the Transfusions after resumption [3, 13] was “no transfusions required”. The Hemoglobin stabilization [3, 14] was “approximately 110 g/L”, the Transfusion status [3, 14] was “achieved transfusion independence” and the “EC99, effective concentration for maximum hemoglobin response” value (hemoglobin response) was 597 µg/mL. The “Concentration, maternal plasma, Sample 2” value [4, 15] was 625 µg/mL, the “Concentration, maternal plasma, Sample 3” value [4, 15] was 587 µg/mL and the “Concentration, maternal plasma, Sample 1” value ([4]; morning prior to scheduled cesarean delivery, pegcetacoplan 1080 mg s.c. three times weekly) was 719 µg/mL. For the same compound, the Fetal loss (cynomolgus monkeys) was “increased fetal loss”, the “Maternal toxicity or teratogenicity” value (cynomolgus monkeys) was “no evidence” and the “Placental and breast milk transfer” value (cynomolgus monkeys) was “minimal”. The Infant complications ([1]; infant exposed in partial first and full third trimester, 10-month follow-up) was “no complications observed”, the “Concentration, cord blood plasma, Sample 1” value [5] was “< LLOQ” and the “Concentration, cord blood plasma, Sample 2” value [5] was “< LLOQ”. For the same compound, the “Concentration, cord blood plasma, Sample 3” value [5] was “< LLOQ”, the CH50 (complement C3, C4, CH50; [9]) was 17 U/mL and the C4 (complement C3, C4, CH50; [10]) was 0.43 g/L. The C3 (complement C3, C4, CH50; [10]) was 4.9 g/L, the CH50 (complement C3, C4, CH50; [10]) was 102 U/mL and the C4 (complement C3, C4, CH50; [11]) was 0.37 g/L. It also gave a C3 (complement C3, C4, CH50; [11]) of 4.7 g/L, a CH50 (complement C3, C4, CH50; [11]) of 88 U/mL and a CH50 (complement C3, C4, CH50; [12]) of 82 U/mL. The CH50 (complement C3, C4, CH50; PP 6 w, pegcetacoplan) was 99 U/mL, the C4 (complement C3, C4, CH50; PP 1 d, pegcetacoplan) was 0.34 g/L and the C3 (complement C3, C4, CH50; PP 1 d, pegcetacoplan) was 4.33 g/L. It also gave a CH50 (complement C3, C4, CH50; PP 1 d, pegcetacoplan) of 86.0 U/mL, a C4 (complement C3, C4, CH50; PP 2 d, pegcetacoplan) of 0.35 g/L and a C3 (complement C3, C4, CH50; PP 2 d, pegcetacoplan) of 4.5 g/L. For the same compound, the CH50 (complement C3, C4, CH50; PP 2 d, pegcetacoplan) was over 103 U/mL, the C4 (complement C3, C4, CH50; PP 3 d, pegcetacoplan) was 0.36 g/L and the C3 (complement C3, C4, CH50; PP 3 d, pegcetacoplan) was 4.44 g/L. The CH50 (complement C3, C4, CH50; PP 3 d, pegcetacoplan) was 97 U/mL.
